# Test results published in patent publication US11553713B2, “Polyalcohol, carbohydrate, nucleobase and nucleotide compositions and uses thereof” (Chunbo Zhang, priority 2015, dated 2023).
# “And” between values parts separate entries of the source, which are not always exact repeats. Equal values may be shown once.
# Columns and labels:
# [1] = system: male mosquitoes; experiment: Efficacy by ingestion: feeder test, death rate of male mosquitoes; type: in vivo; details: 0.1% rFOH, 10% sugar in CPDA, 24 hrs, 24 hrs fasting, sugar feeder provided for free choice
# Description: (§1) (2R)-3-fluoropropane-1,2-diol (rFOH) was used as the active agent at various concentrations. A sugar feeder containing 10% sucrose, which is a regular mosquito feeder in a laboratory setting, was used as a regular food source in free choice studies. A free choice study allows the pests to select which feeder to feed on when given two or more choices.
# Similar experiments as disclosed above were performed on female mosquitoes and male mosquitoes. The rFOH composition contained 10% sugar in CPDA solution unless specified otherwise.
# [2] = system: mosquitoes; experiment: Toxicity of rFOH by air exposure (container protected with a net to prevent ingestion); type: in vivo
# Description: The CPDA contained 3.33 g sodium citrate, 0.376 g citric acid, 4.02 g glucose, 0.28 g sodium monobasic phosphate, and 0.346 g adenine in 1 liter of solution. (2R)-3-fluoropropane-1,2-diol (rFOH) was used as the active agent at a concentration of 1%.
# 100 mosquitoes were placed in a 6-liter cage with a container containing 1% rFOH in 10% sucrose with CPDA for 48 hours at room temperature (25-28° C.). The container was protected with a net to prevent ingestion of rFOH by the mosquitoes. […] The same result was obtained even when 10% of rFOH was used.
# [3] = system: Escherishia coli DH5α; experiment: MIC test, broth microdilution (CLSI M07-A9); type: cell-based; details: Tryptic soy broth, 37° C. for 24 hrs
# Description: (§2) The effects of pesticides disclosed herein on various bacteria were tested by determining the minimal inhibitory concentration (MIC) of the pesticides. MIC of an antimicrobial agent is the lowest concentration of the antimicrobial agent that inhibits a given bacterial isolate from multiplying and producing visible growth in the test system. The MIC of rFOH and BrOH was determined in the laboratory by incubating a known quantity of bacteria with a series of dilutions of the active agents and comparing their effects with those of known antimicrobial agents. Table 6 lists the representative bacterial strains and the conditions in MIC tests. Antimicrobial tests of the active agents were conducted according to “Methods for Dilution Antimicrobial Susceptibility Tests for Bacteria That Grow Aerobically” by Clinical and Laboratory Standards Institute (CLSI) (CLSI document M07-A9, 2012). In the study, methicillin/oxacillin resistant Staphylococcus aureus (MRSA) strain (ATCC 43300) was routinely under screening with 4 ug/ml oxacillin. Escherishia coli DH5α was a nonpathogenic laboratory strain. […] When the DH5α/plasmid (DH5P) colony was used, the colony was maintained in the presence of 100 ug/ml ampicillin.
# (§3) MIC tests were conducted in 96 well microtiter plates with a total volume of 150 ul broth in each well. The directly colony suspension method (CLSI document M07-A9, 2012) was applied to obtain MIC for antimicrobial tests of the active agents. After colonies were freshly incubated overnight, colonies were suspended in sterile water to adjust the inoculum to a turbidity equivalent to a 0.5 McFarland standard (corresponding to approximately 1.5×10^8 CFU/ml). Within 10 minutes, the inoculum was adjusted by dilution in broth to reach a final concentration of 5×10^5 CFU/ml. A series of various concentrations of the active agents were applied to determine the MIC. In the same microtiter plate, an internal standard formulated by a concentration series of standard antibiotic agent was incubated in parallels to allow for back-to-back comparison.
# [4] = system: Methicillin/oxacillin resistant Staphylococcus aureus (MRSA) strain (ATCC 43300); experiment: MIC test, broth microdilution (CLSI M07-A9); type: cell-based; details: Mueller Hinton broth with 2% NaCl and 50 ug/ml CaCl2, 35° C. for 24 hrs
# Description: as §2, §3
# [5] = system: Escherishia coli DH5α transformed with a pcDNA3 plasmid (DH5P); experiment: MIC test, broth microdilution (CLSI M07-A9); type: cell-based; details: Tryptic soy broth, 37° C. for 24 hrs
# Description: as §2, §3
# [6] = system: female mosquitoes; experiment: Efficacy by ingestion: feeder test in 6-liter cage, death rate of female mosquitoes; type: in vivo; details: for death after 24 hours of feeding: fasted 24 hours
# Source text: Female mosquitoes were used in the experiment because only female mosquitoes bite humans and animals and transmit infectious diseases.
# as §1
# In a two-choice test, a 6-liter cage was supplied with two feeders, one contained 5% rFOH and 10% sucrose in CPDA and the other one contained 10% sucrose without any rFOH or CPDA. 100 female mosquitoes were placed in the cage having the two feeders such that the mosquitoes chose freely which feeder to feed on. After 24 hours of feeding in the cage, over 80% of mosquitoes were dead. […] When the concentration of rFOH was reduced to 1% or 0.15%, its effectiveness remained the same. Over 80% of mosquitoes were dead due to 24 hours of feeding with rFOH.
# Subsequent to 24 hours of feeding, rFOH feeder was removed from the cage and a regular sugar feeder (10% sucrose) was provided. In the next day, 5-20% of residual death was observed, indicating a delayed death after rFOH ingestion.
# In a further study, mosquitoes were fasted for 24 hours before feeding to ensure that all mosquitoes have the capacity for food intake. […] Thus, fasting is not a cause of mosquito death during a series of experiments.
# The experiments determined that 0.1% rFOH was sufficient to achieve 50% death (LD50) under various conditions. In one study, 100 mosquitoes were caged in a 6-liter space and fasted for 24 hours. Subsequently, the mosquitoes were fed on two feeders giving their free choices for 0.1% rFOH containing 10% sucrose in CPDA or 10% sucrose without rFOH for 24 hours, resulting in 43% death. In a parallel study in which the cage was supplied with a single feeder, the 0.1% rFOH feeder containing 10% sucrose in CPDA, which caused 44% of death after 24 hours of feeding.
# Similar experiments as disclosed above were performed with various rFOH concentrations under various conditions. The rFOH composition contained 10% sugar in CPDA solution unless specified otherwise.
# Similar experiments as disclosed above were performed on female mosquitoes to determine LD50. The rFOH composition contained 10% sugar in CPDA solution unless specified otherwise.
# Similar experiments as disclosed above were performed on female mosquitoes using different active agents at various concentrations. The active agent composition contained 10% sugar in CPDA solution unless specified otherwise.
compound,measurement,setting,value
"OC[C@@H](O)CF [rFOH, (2R)-3-fluoropropane-1,2-diol]",Death Rate,[1],95%
same,death of mosquito by air exposure,"[2]; 1% rFOH in 10% sucrose with CPDA, container protected with net, 48 hours, room temperature (25-28° C.)",No death
same,death of pests when exposed but not ingested,"[2]; concentration 100-fold as high as the LD50, not ingested",no death
same,MIC,[3],0.4% and 0.43%
same,MIC,[4],0.4%
same,MIC,[5],0.4%
same,Death Rate,"[6]; 0.1% rFOH, 5% sugar, CPDA, 5% maltose, 24 hrs, 24 hrs fasting, sugar feeder provided for free choice",54%
same,Death Rate,"[6]; 0.1% rFOH, 5% sugar, CPDA, 25% Maple Syrup, 24 hrs, 24 hrs fasting, sugar feeder provided for free choice",26-47%
same,Death Rate,"[6]; 0.1% rFOH, 5% sugar, CPDA, 50% corn syrup, 24 hrs, 24 hrs fasting, sugar feeder provided for free choice",22-30%
same,death after 24 hours of feeding,"[6]; 0.1% rFOH, 10% sucrose in CPDA, free choice with 10% sucrose feeder",43%
same,death after 24 hours of feeding,"[6]; 0.1% rFOH, 10% sucrose in CPDA, single feeder",44%
same,Death Rate,"[6]; 0.1% rFOH, 10% sugar in CPDA, 24 hrs, 24 hrs fasting, sugar feeder not provided",65%
same,Death Rate,"[6]; 0.1% rFOH, 10% sugar in CPDA, 24 hrs, 24 hrs fasting, sugar plus CPDA feeder provided for free choice",59-80%
same,Death Rate,"[6]; 0.1% rFOH, 10% sugar in CPDA, 24 hrs, not fasted, sugar feeder provided for free choice",64%
same,Death Rate,"[6]; 0.1% rFOH, 10% sugar, no CPDA, 24 hrs, 24 hrs fasting, sugar feeder provided for free choice",44-50%
same,total death rate incl. residual death,"[6]; 0.1% rFOH, rFOH feeder replaced by sugar feeder, residual death within next 24 hours included",46-64%
same,death of female mosquitoes after 24 hours of feeding,[6]; 0.15% rFOH,more than 90%
same,Death Rate,"[6]; 0.15% rFOH, 10% sucrose in CPDA, 24 hours feeding, two-choice with 10% sucrose feeder",over 80%
same,Death Rate,"[6]; 0.15% rFOH, 10% sugar in CPDA, 24 hrs, 24 hrs fasting, sugar feeder not provided",95-98%
same,Death Rate,"[6]; 0.15% rFOH, 10% sugar in CPDA, 24 hrs, 24 hrs fasting, sugar feeder provided for free choice",55-80%
same,time to death after ingestion,"[6]; 0.15% rFOH, female mosquitoes",2 to 5 h
same,Death Rate,"[6]; 1% rFOH, 10% sucrose in CPDA, 24 hours feeding, two-choice with 10% sucrose feeder",over 80%
same,Death Rate,"[6]; 5% rFOH, 10% sugar in CPDA, 24 hrs, not fasted, sugar feeder not provided",94%
same,residual death in the next day,"[6]; after 24 hours feeding rFOH feeder removed, regular sugar feeder (10% sucrose) provided",5-20%
same,rFOH per mosquito corresponding to 0.15% rFOH,"[6]; assuming a female mosquito ingests as much as 0.6 μl of the composition, >90% death",0.001 mg
